Data: patent publication US20100137346A1, “DESFE[…] ACTINIDE DEC[…]” (priority 2006, published 2010)
Where two headings read alike, the source gives them in different places.

Key:
[1] = Chelator-induced uranium excretion (urine + bile, 24 h) in bile duct-cannulated rat model; assay type: in vivo; conditions: for uranium clearance, in words: given IP immediately post uranyl acetate, doses per Table 1
Method: (§1) Desferrithiocin Analogue Induced Excretion of Uranium. In order to compare results with previous chelator-induced iron excretion data, the uranium clearance studies were carried out in a bile duct-cannulated rat model. The animals were given uranyl acetate dihydrate SC at a dose of 5 mg/kg (the actual dose of uranium is 2.8 mg/kg). Bile and urine samples were collected for 24 hours after dosing. Kidneys were removed from selected animals and tissue uranium concentration measured. At least three animals were utilized in each experimental group. Data from two separate control studies (uranyl acetate/ no chelator) have now been combined for a total of 14 control animals. All uranium concentrations were measured using ICPMS. The data are reported as the total quantity of uranium excreted [urine +bile]; the mode of excretion [urine/bile] is also given. In addition the percentage of the administered dose of uranium cleared and chelator-induced uranium excretion vs the controls is also given. Four positive controls were evaluated: DTPA (13, Table 1) given as its trisodium calcium salt, DFO (14), N,N′-bis(2hydroxybenzyl)ethylenediamine-N,N′-diacetic acid, monosodium salt (NaHBED, 15) and the hydroxypyridone CP94 (16) shown to bind uranium [Pashalidis, et al., Effective complex formation in the interaction of 1,2-dimethyl-3-hydroxypyrid-4-one (Deferiprone or L1) with uranium(VI), Journal of Radioanalytical and Nuclear Chemistry 1999; 242:181-184.] The total metal cleared after 24 h in control rats was 10% of the administered dose. When DTPA, 13, was given IP or PO at 300 μmol/kg immediately after uranium, the excretion was 17% and 8% of the administered dose respectively (p>0.05). However, when the drug was given IP at a dose of 600 μmol/kg immediately post-metal, the uranium excretion was significant, 20% (p<0.005). This is consistent with previously published data using a similar animal model.[Domingo, et al., Comparative effects of the chelators sodium 4,5-dihydroxybenzene-1,3-disulfonate (Tiron) and diethylenetriaminepentaacetic acid (DTPA) on acute uranium nephrotoxicity in rats, Toxicology 1997; 118:49-59] DFO (14) and CP94 (16) given IP immediately post uranyl acetate were ineffective.
Desferrithiocin Analogue-Induced Excretion of Uranium. In order to compare results with previous chelator-induced iron excretion data, the uranium clearance studies were carried out in a bile duct-cannulated rat model. The animals were given uranyl acetate dihydrate SC at a dose of 5 mg/kg (the actual dose of uranium is 2.8 mg/kg). Bile and urine samples were collected for 24 hours after dosing. Kidneys were removed from selected animals and tissue uranium concentration measured. At least three animals were utilized in each experimental group. Data from two separate control studies (uranyl acetate/ no chelator) are combined for a total of 14 control animals. All uranium concentrations were measured using ICPMS. The data are reported as the total quantity of uranium excreted [urine +bile]; the mode of excretion [urine/bile] is also given. In addition the percentage of the administered dose of uranium cleared and chelator-induced uranium excretion vs the controls is also given. Four positive controls were evaluated: DTPA (1, Table 1) given as its trisodium calcium salt, DFO (2), N,N -bis(2-hydroxybenzyl)ethylenediamine-N,N-diacetic acid, monosodium salt (NaHBED, 3) and the hydroxypyridone CP94 (4) shown to bind uranium. The total metal cleared after 24 h in control rats was 10% of the administered dose. When DTPA, 1, was given IP or PO at 300 μmol/kg immediately after uranium, the excretion was 17% and 8% of the administered dose respectively (p>0.05). However, when the drug was given IP at a dose of 600 μmol/kg immediately post metal, the uranium excretion was significant, 20% (p<0.005). This is consistent with previously published data using a similar animal model.^2 DFO (2) and CP94 (4) given IP immediately post uranyl acetate were ineffective.

[2] = cited from earlier work; for relative percentages of the iron excreted in the stool and urine / Iron Clearing Efficiency (%): orally to C. apella primates, 150 μmol/kg, data from ref 19 / ref 17
[3] = Renal uranium content in uranyl acetate-treated bile duct-cannulated rats (FIG. 3); assay type: in vivo, rat
Method: as §1
The most promising analogue in the (S)-2-(2,4-dihydroxyphenyl)-4,5-dihydro-4-thiazolinecarboxylic series is the methoxy analogue (S)-4′-(CH3O)-DADMDFT (11). Given IP at 300 μmol/kg 0.5 h before uranyl acetate or immediately thereafter, nearly 30% of the metal was cleared (Table 1). This was also true if the drug was given IP 0.5 or 2 h post metal. The drug retains some efficacy given 4 h post uranium; 16% of the metal is excreted (p<0.006). When the chelator was given SC immediately post uranium, 40% of the administered metal was cleared. The increased excretion is probably associated with a slower absorption of the ligand. The data from rodents given the drug orally is even more encouraging (Table 1). […] The most profound data are associated with uranium decorporation from the kidneys (FIG. 3). When DTPA is given IP or PO at a dose of 300 μmol/kg immediately post metal, there is no reduction in renal uranium relative to controls. However, (S)-4′-(CH3O)-DADMDFT (11) given orally at a dose of 300 μmol/kg immediately post metal reduces renal uranium by 37% (p<0.005).
There is a small (16%) reduction when the drug is given PO at a dose of 300 μmol/kg 2 h post uranium. However, when 11 is given PO at a dose of 600 μmol/kg 0.5 h post metal, the renal uranium content is reduced by 76% (p<0.001). When given PO at the same dose 1 h post uranium exposure, the reduction is still significant, 42% (p<0.006). In all sets of ligands, the most lipophilic chelator is always the most toxic. […] On the basis of this finding, a less lipophilic, more water-soluble ligand than 12 was assembled, (S)-4′-(HO)-DADFT-PE (18, Table 1), a polyether analogue.

[4] = Rattus norvegicus, ip, 24 h, 300 μmol/kg IP Immediate, read-out: Chelator-Induced U Excretion/Control

desferrioxamine [DFO, reference compound]
uranium clearance, in words [1]: ineffective | ICE ([2]; subcutaneous administration, iron-loaded Cebus apella primate): 5.0±2.6%

O=C(O)[C@H]1CSC(c2ccc(O)cc2O)=N1 [drawing 22]
relative percentages of the iron excreted in the stool and urine [2]: 70/30 | Iron Clearing Efficiency (%) [2]: 4.2 ± 1.4%

COc1ccc(C2=N[C@@H](C(=O)O)CS2)c(O)c1 [drawing 12]
% of Administered Dose Cleared ([1]; 300 μmol/kg IP 0.5 h Post): 33% | Chelator-Induced U Excretion/Control ([1]; 300 μmol/kg IP 0.5 h Post): 3.3 | Uranium Excretion ([1]; 300 μmol/kg IP 0.5 h Post): 917 ± 177 µg/kg | Uranium Excretion [urine/bite] ([1]; 300 μmol/kg IP 0.5 h Post): [16/84] | % of Administered Dose Cleared ([1]; 300 μmol/kg IP 0.5 h Pre): 29% | Chelator-Induced U Excretion/Control ([1]; 300 μmol/kg IP 0.5 h Pre): 2.9 | Uranium Excretion ([1]; 300 μmol/kg IP 0.5 h Pre): 815 ± 211 µg/kg | Uranium Excretion [urine/bite] ([1]; 300 μmol/kg IP 0.5 h Pre): 48/52 | % of Administered Dose Cleared ([1]; 300 μmol/kg IP 2 h Post): 30% | Chelator-Induced U Excretion/Control ([1]; 300 μmol/kg IP 2 h Post): 3.0 | Uranium Excretion ([1]; 300 μmol/kg IP 2 h Post): 847 ± 335 µg/kg | Uranium Excretion [urine/bite] ([1]; 300 μmol/kg IP 2 h Post): [46/54] | % of Administered Dose Cleared ([1]; 300 μmol/kg IP 4 h Post): 16% | Chelator-Induced U Excretion/Control ([1]; 300 μmol/kg IP 4 h Post): 1.6 | Uranium Excretion ([1]; 300 μmol/kg IP 4 h Post): 444 ± 119 µg/kg | Uranium Excretion [urine/bite] ([1]; 300 μmol/kg IP 4 h Post): [66/34] | % of Administered Dose Cleared ([1]; 300 μmol/kg IP Immediate): 30% | Chelator-Induced U Excretion/Control ([1]; 300 μmol/kg IP Immediate): 3.0 | Uranium Excretion ([1]; 300 μmol/kg IP Immediate): 838 ± 166 µg/kg | Uranium Excretion [urine/bite] ([1]; 300 μmol/kg IP Immediate): [64/36] | % of Administered Dose Cleared ([1]; 300 μmol/kg PO 2 h Post): 18% | Chelator-Induced U Excretion/Control ([1]; 300 μmol/kg PO 2 h Post): 1.8 | Uranium Excretion ([1]; 300 μmol/kg PO 2 h Post): 507 ± 182 µg/kg | Uranium Excretion [urine/bite] ([1]; 300 μmol/kg PO 2 h Post): [53/47] | % of Administered Dose Cleared ([1]; 300 μmol/kg PO Immediate): 23% | Chelator-Induced U Excretion/Control ([1]; 300 μmol/kg PO Immediate): 2.3 | Uranium Excretion ([1]; 300 μmol/kg PO Immediate): 642 ± 101 µg/kg | Uranium Excretion [urine/bite] ([1]; 300 μmol/kg PO Immediate): [43/57] | % of Administered Dose Cleared ([1]; 300 μmol/kg SC Immediate): 40% | Chelator-Induced U Excretion/Control ([1]; 300 μmol/kg SC Immediate): 4.0 | Uranium Excretion ([1]; 300 μmol/kg SC Immediate): 1130 ± 245 µg/kg | Uranium Excretion [urine/bite] ([1]; 300 μmol/kg SC Immediate): [13/87] | % of Administered Dose Cleared ([1]; 600 μmol/kg PO 0.5 h Post): 25% | Chelator-Induced U Excretion/Control ([1]; 600 μmol/kg PO 0.5 h Post): 2.5 | Uranium Excretion ([1]; 600 μmol/kg PO 0.5 h Post): 698 ± 166 µg/kg | Uranium Excretion [urine/bite] ([1]; 600 μmol/kg PO 0.5 h Post): [24/76] | % of Administered Dose Cleared ([1]; 600 μmol/kg PO 1 h Post): 26% | Chelator-Induced U Excretion/Control ([1]; 600 μmol/kg PO 1 h Post): 2.6 | Uranium Excretion ([1]; 600 μmol/kg PO 1 h Post): 723 ± 128 µg/kg | Uranium Excretion [urine/bite] ([1]; 600 μmol/kg PO 1 h Post): [28/72]

COc1ccc(C2=N[C@@](C)(C(=O)O)CS2)c(O)c1 [drawing 25]
relative percentages of the iron excreted in the stool and urine [2]: 91/9 | Iron Clearing Efficiency (%) [2]: 24.4 ± 10.8%

CCC1=C(O)C(=O)CCN1CC [CP94, reference compound]
uranium clearance, in words [1]: ineffective

C[C@]1(C(=O)O)CSC(c2ccc(O)cc2O)=N1 [drawing 23]
relative percentages of the iron excreted in the stool and urine [2]: 86/14 | Iron Clearing Efficiency (%) [2]: 13.4 ± 5%

CCC1=C(O)C(=O)CCN1CC [drawing 7]
% of Administered Dose Cleared ([1]; 450 μmol/kg IP Immediate): 11% | Uranium Excretion ([1]; 450 μmol/kg IP Immediate): 302 ± 171 µg/kg | Uranium Excretion [urine/bite] ([1]; 450 μmol/kg IP Immediate): 100/0 | response vs control in vivo at 450 µmol/kg ([1]; Rattus norvegicus, ip, 24 h, 450 μmol/kg IP Immediate, read-out: Chelator-Induced U Excretion/Control): 110%

O=C([O-])CN(CCN(CC(=O)O)Cc1ccccc1O)Cc1ccccc1O.[Na+] [NaHBED, N,N′-bis(2hydroxybenzyl)ethylenediamine-N,N′-diacetic acid, monosodium salt, reference compound]
uranium clearance, in words [1]: marginally improved clearance

COCCOCCOCCOc1ccc(C2=N[C@@](C)(C(=O)O)CS2)c(O)c1 [drawing 21]
Uranium Excretion ([1]; 300 μmol/kg IP Immediate): 626 ± 123 µg/kg | Uranium Excretion [urine/bite] ([1]; 300 μmol/kg IP Immediate): 35/65 | response vs control in vivo at 300 µmol/kg [1, 4]: 220%

O=C(O)[C@H]1CSC(c2ncccc2O)=N1 [Compound 2, (S)-4,5-dihydro-2-(3-hydroxy-2-pyridinyl)-4-thiazolecarboxylic acid]
ICE ([2]; iron-overloaded C. apella primate): 4.8%

O=C(O)CN(CCN(CC(=O)O)CC(=O)O)CCN(CC(=O)O)CC(=O)O [DTPA, diethylenetriaminepentaacetic acid, reference compound]
% of Administered Dose Cleared ([1]; 300 μmol/kg IP Immediate): 17% | % of Administered Dose Cleared ([1]; 300 μmol/kg PO Immediate): 8% | % of Administered Dose Cleared ([1]; 600 μmol/kg IP Immediate): 20% | reduction in renal uranium relative to controls ([3]; IP 300 μmol/kg immediately post metal): no reduction | reduction in renal uranium relative to controls ([3]; PO 300 μmol/kg immediately post metal): no reduction

CC(=O)N(O)CCCNC(=O)CCC(=O)N(O)CCCCCNC(=O)CCC(=O)N(O)CCCN
% of Administered Dose Cleared ([1]; 300 μmol/kg IP Immediate): 16% | Uranium Excretion ([1]; 300 μmol/kg IP Immediate): 438 ± 191 µg/kg | Uranium Excretion [urine/bite] ([1]; 300 μmol/kg IP Immediate): 100/0 | response vs control in vivo at 300 µmol/kg [1, 4]: 160%

COc1ccc(C2=N[C@@H](C(=O)O)CS2)c(O)c1 [drawing 24]
relative percentages of the iron excreted in the stool and urine [2]: 81/19 | Iron Clearing Efficiency (%) [2]: 16.2 ± 3.2%

CC1(C)SC(c2ccccc2O)=N[C@@H]1C(=O)O [drawing 20]
% of Administered Dose Cleared ([1]; 300 μmol/kg IP 0.5 h Post): 7% | Chelator-Induced U Excretion/Control ([1]; 300 μmol/kg IP 0.5 h Post): 0.7 | Uranium Excretion ([1]; 300 μmol/kg IP 0.5 h Post): 200 ± 47 µg/kg | Uranium Excretion [urine/bite] ([1]; 300 μmol/kg IP 0.5 h Post): 37/63 | % of Administered Dose Cleared ([1]; 300 μmol/kg IP Immediate): 26% | Chelator-Induced U Excretion/Control ([1]; 300 μmol/kg IP Immediate): 2.6 | Uranium Excretion ([1]; 300 μmol/kg IP Immediate): 743 ± 189 µg/kg | Uranium Excretion [urine/bite] ([1]; 300 μmol/kg IP Immediate): 8/92
